In patent US12247004B2, “2-amino-N-(amino-oxo-aryl-lambda6-sulfanylidene)acetamide compounds and their therapeutic use” (Oxford Drug Design Limited, priority 2019, dated 2025):
Converted amounts (≈) assume the structure as drawn. Read-outs that look alike come from different tables or passages of the source.

Assays:
[1] = test system: bacteria (ATCC reference strains); assay: Antibacterial activity, MIC by broth micro-dilution (CLSI)
[2] = biological target: Leucyl-tRNA synthetase (LeuRS) (Escherichia coli (strain K12), UniProt P07813); assay: Leucyl-tRNA synthetase enzyme inhibition (AMP-Glo; single point % inhibition at 100 μM and IC50); type: biochemical
Chain of Leucyl-tRNA synthetase (LeuRS) (P07813 whole entry, looked up): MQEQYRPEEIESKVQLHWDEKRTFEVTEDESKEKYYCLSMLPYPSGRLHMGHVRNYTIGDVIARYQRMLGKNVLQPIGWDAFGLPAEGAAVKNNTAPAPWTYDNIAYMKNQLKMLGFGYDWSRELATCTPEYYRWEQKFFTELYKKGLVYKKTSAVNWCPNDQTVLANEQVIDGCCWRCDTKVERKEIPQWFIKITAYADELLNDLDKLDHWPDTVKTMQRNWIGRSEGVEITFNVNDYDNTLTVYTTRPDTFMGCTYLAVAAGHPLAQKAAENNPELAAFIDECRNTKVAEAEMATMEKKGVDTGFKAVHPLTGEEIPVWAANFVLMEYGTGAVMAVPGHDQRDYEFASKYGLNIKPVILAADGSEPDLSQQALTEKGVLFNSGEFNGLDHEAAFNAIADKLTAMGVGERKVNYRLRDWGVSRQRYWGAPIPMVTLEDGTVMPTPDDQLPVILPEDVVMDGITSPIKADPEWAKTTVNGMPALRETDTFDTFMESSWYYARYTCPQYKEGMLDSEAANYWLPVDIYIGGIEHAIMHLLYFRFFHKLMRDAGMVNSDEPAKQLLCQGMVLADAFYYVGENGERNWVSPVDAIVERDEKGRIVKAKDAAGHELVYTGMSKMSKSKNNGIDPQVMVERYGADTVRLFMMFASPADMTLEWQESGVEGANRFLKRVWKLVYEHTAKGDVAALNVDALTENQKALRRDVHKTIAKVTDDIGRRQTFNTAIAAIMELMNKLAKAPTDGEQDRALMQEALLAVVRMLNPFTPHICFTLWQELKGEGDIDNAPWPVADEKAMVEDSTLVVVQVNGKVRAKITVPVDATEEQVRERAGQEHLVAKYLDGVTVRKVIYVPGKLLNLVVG
Text: Study 1—Enzyme Inhibition
The aminoacylation reaction catalyzed by aminoacyl-tRNA synthetases (aaRS) takes place in two steps. In the first step, aaRS activates its cognate amino acid with ATP; and in the second step the activated amino acid is loaded to its corresponding tRNA. This reaction can be summarized as follows: aaRS+aa+ATP=aaRS-aa-AMP+PPi aaRS-aa-AMP+tRNA=aa-tRNA+AMP+aaRS
wherein: aaRS, aminoacyl-tRNA synthetase; aa, amino acid; aaRS-aa-AMP, enzyme-bound to aminoacyl-adenylate; AMP, adenosine monophosphate; aa-tRNA, aminoacyl-tRNA, PPi, inorganic pyrophosphate.
a. Single Point Percentage Inhibition
The activity of the pathogenic aaRSs was monitored by measuring AMP production using the commercial kit AMP-Glo (Promega, Madison, USA).
Ligand stock solutions were prepared in 100% DMSO at 10 mM concentration. An assay buffer consisting of 100 mM Tris HCl pH 7.6, 40 mM MgCl, 20 mM KCl and 150 mM NaCl was prepared in dH2O.
Using the same enzymatic assay in a 384-well plate format, ten point concentration response curves were generated for each compound using a top concentration of 10 μM. The known inhibitor LeuAMS was used as a positive control for the LeuRS assay. 100% DMSO was used as a negative control. The IC50 was calculated based on non-linear regression analysis.

[3] = Escherichia coli, ATCC25922, read-out: Antibacterial Activity (MIC), A = E. coli ATCC 25922
[4] = Escherichia coli, BAA2469, read-out: Antibacterial Activity (MIC), G = E. coli BAA-2469
[5] = Klebsiella pneumoniae, ATCC700603, read-out: Antibacterial Activity (MIC), C = K. pneumoniae ATCC 700603
[6] = E. coli LeuRS, read-out: Enzyme Inhibition - IC50, E. coli LeuRS
[7] = Haemophilus influenzae, ATCC49247, read-out: Antibacterial Activity (MIC), F = H. influenzae ATCC 49247
[8] = Acinetobacter baumannii, read-out: Antibacterial Activity (MIC), E = A. baumannii B1931
[9] = Enterobacter cloacae, read-out: Antibacterial Activity (MIC), B = Enterobacter cloacae B1966
[10] = Pseudomonas aeruginosa, ATCC27853, read-out: Antibacterial Activity (MIC), D = P. aeruginosa ATCC 27853

Row | Compound | MIC [1, 3] [µg/mL] | MIC [1, 4] [µg/mL] | IC50 [2] [nM] | MIC [1, 5] [µg/mL] | IC50 [2, 6] [nM] | other results
1 | CC(=O)c1sccc1[S@@](N)(=O)=NC(=O)[C@@H](N)CC(C)C (single isomer, unassigned) [ANASIA-112-1] | 32 (≈ 101 µM) | 64 (≈ 202 µM) | 294 | – | – | –
2 | CC(C)C[C@H](N)C(=O)N=S(N)(=O)c1csc(F)c1 (some centres unmarked) [ANASIA-060] | – | 16 (≈ 54.5 µM) | – | 32 (≈ 109 µM) | 227 | –
3 | CC(C)C[C@H](N)C(=O)N=[S@](N)(=O)c1cc(F)cs1 [ANASIA-062-1] | – | 8 (≈ 27.3 µM) | 47.5 | 32 (≈ 109 µM) | – | –
4 | CC(C)C[C@H](N)C(=O)N=S(N)(=O)c1cc(F)c(F)s1 (some centres unmarked) [ANASIA-063] | – | 64 (≈ 206 µM) | – | > 256 | 223 | –
5 | CCOc1cccc(S(N)(=O)=NC(=O)[C@@H](N)CC(C)C)c1 (some centres unmarked) [ANASIA-066] | 64 (≈ 204 µM) | > 64 | – | – | 553 | –
6 | CC(C)C[C@H](N)C(=O)N=S(N)(=O)c1sccc1-c1ccccc1 (some centres unmarked) [ANASIA-068] | 32 (≈ 91 µM) | > 64 | – | – | 141 | –
7 | CC(C)C[C@H](N)C(=O)N=S(N)(=O)c1sccc1F (some centres unmarked) [ANASIA-070] | – | 32 (≈ 109 µM) | – | 64 (≈ 218 µM) | 143 | –
8 | CC(C)C[C@H](N)C(=O)N=S(N)(=O)c1ccc(F)s1 (some centres unmarked) [ANASIA-071] | – | 8 (≈ 27.3 µM) | – | 32 (≈ 109 µM) | 173 | –
9 | CC(C)C[C@H](N)C(=O)N=S(N)(=O)c1ccsc1F (some centres unmarked) [ANASIA-074] | – | 16 (≈ 54.5 µM) | – | 32 (≈ 109 µM) | 99.2 | –
10 | CC(C)C[C@H](N)C(=O)N=[S@](N)(=O)c1ccccn1.Cl [ANASIA-075-1] | 32 | – | 420 | – | – | MIC [1, 7]: > 64 µg/mL
11 | CC(C)C[C@H](N)C(=O)N=[S@](N)(=O)c1csc2ccccc12 [ANASIA-083-1] | 32 (≈ 98.3 µM) | – | – | – | 157 | MIC [1, 7]: 32 µg/mL (≈ 98.3 µM)
12 | CC(C)C[C@H](N)C(=O)N=[S@](N)(=O)c1cccc(C(F)(F)F)c1.Cl [ANASIA-089-1] | 64 | – | 195 | – | – | MIC [1, 7]: 64 µg/mL
13 | Cc1sccc1[S@@](N)(=O)=NC(=O)[C@@H](N)CC(C)C.Cl [ANASIA-091-1] | 64 | > 64 | 847 | – | – | –
14 | Cc1cscc1[S@@](N)(=O)=NC(=O)[C@@H](N)CC(C)C.Cl [ANASIA-094-1] | 8 | 64 | 476 | 128 | – | –
15 | Cc1csc([S@@](N)(=O)=NC(=O)[C@@H](N)CC(C)C)c1.Cl [ANASIA-095-1] | 0.794 | 2 | 29 | 10.1 | – | MIC [1, 8]: 8 µg/mL; MIC [1, 9]: 8 µg/mL; MIC [1, 10]: 32 µg/mL
16 | Cc1cc([S@@](N)(=O)=NC(=O)[C@@H](N)CC(C)C)cs1.Cl [ANASIA-098-1] | 3.17 | 4 | 148 | 32 | – | MIC [1, 8]: 64 µg/mL; MIC [1, 9]: 16 µg/mL; MIC [1, 10]: 64 µg/mL
17 | CC(C)C[C@H](N)C(=O)N=[S@](N)(=O)c1csc(Cl)c1.Cl [ANASIA-099-1] | 0.5 | 4 | 124 | 8 | – | MIC [1, 8]: 16 µg/mL; MIC [1, 9]: 4 µg/mL; MIC [1, 10]: 64 µg/mL
18 | CC(C)C[C@H](N)C(=O)N=[S@](N)(=O)c1csc2ccsc12.Cl [ANASIA-100-1] | 1 | 5.66 | 27.8 | 45.3 | – | MIC [1, 8]: 16 µg/mL; MIC [1, 9]: 16 µg/mL; MIC [1, 10]: 64 µg/mL
19 | CC(C)C[C@H](N)C(=O)N=[S@](N)(=O)c1ccc2c(c1)OCO2.Cl [ANASIA-101-1] | 64 | – | 1670 | – | – | –
20 | COc1cccc(S(N)(=O)=NC(=O)[C@@H](N)CC(C)C)c1 (stereo partly drawn) [ANASIA-102, (2S)-2-amino-N-(amino(3-methoxyphenyl)(oxo)-16-sulfaneylidene)-4-methylpentanamide] | 16 (≈ 53.4 µM) | > 64 | – | – | 385 | –
21 | CC(C)C[C@H](N)C(=O)N=[S@@](N)(=O)c1scc(F)c1F [ANASIA-103-2] | 16 (≈ 51.4 µM) | – | – | – | 210 | –
22 | Cc1csc([S@@](N)(=O)=NC(=O)[C@@H](N)CC(C)C)c1C.Cl [ANASIA-104-1] | 8 | 16 | 241 | 128 | – | –
23 | C=Cc1ccc([S@@](N)(=O)=NC(=O)[C@@H](N)CC(C)C)s1 [ANASIA-105-1, (S)-2-amino-N—((S)-amino(oxo)(5-vinylthiophen-2-yl)-λ6-sulfanylidene)-4-methylpentanamide] | 32 (≈ 106 µM) | – | 489 | – | – | –
24 | CC(C)C[C@H](N)C(=O)N=[S@](N)(=O)c1scc(Br)c1Br.Cl [ANASIA-107-1] | 32 | – | 106 | – | – | –
25 | COc1ccc([S@@](N)(=O)=NC(=O)[C@@H](N)CC(C)C)s1.Cl [ANASIA-109-1] | 32 | 32 | 2560 | – | – | –

Row | Compound | MIC [1, 3] [µg/mL] | MIC [1, 4] [µg/mL] | IC50 [2] [nM] | MIC [1, 5] [µg/mL] | IC50 [2, 6] [nM] | other results
26 | CC(C)C[C@H](N)C(=O)N=S(N)(=O)c1ccccc1O (stereo partly drawn) [ANASIA-113, (2S)-2-amino-N-(amino(2-hydroxyphenyl)(oxo)-λ6-sulfanylidene)-4-methylpentanamide] | 64 (≈ 224 µM) | – | – | – | 3230 | –
27 | CCc1ccsc1[S@@](N)(=O)=NC(=O)[C@@H](N)CC(C)C.Cl [ANASIA-119-1] | 4 | 8 | 99.7 | 64 | – | MIC [1, 8]: 32 µg/mL; MIC [1, 9]: 32 µg/mL; MIC [1, 10]: > 64 µg/mL
28 | CC(C)C[C@H](N)C(=O)N=[S@](N)(=O)c1sc(Cl)cc1Cl.Cl [ANASIA-120-1] | 32 | – | 293 | – | – | –
29 | CC(C)C[C@H](N)C(=O)N=[S@](N)(=O)c1cc(Cl)c(Cl)s1.Cl [ANASIA-121-1] | 8 | 16 | 41.7 | > 256 | – | –
30 | Cc1c([S@@](N)(=O)=NC(=O)[C@@H](N)CC(C)C)csc1Cl.Cl [ANASIA-122-1] | 32 | – | 167 | – | – | –
31 | CC(C)C[C@H](N)C(=O)N=[S@](N)(=O)c1csc(Cl)c1Cl.Cl [ANASIA-125-1] | – | 64 | 304 | > 256 | – | –
32 | CC(C)C[C@H](N)C(=O)N=[S@](N)(=O)c1ccsc1C(F)F.Cl [ANASIA-126-1] | 5.66 | 32 | 208 | 256 | – | MIC [1, 8]: > 64 µg/mL; MIC [1, 9]: > 64 µg/mL; MIC [1, 10]: > 64 µg/mL
33 | CC(C)C[C@H](N)C(=O)N=[S@@](N)(=O)c1ccsc1C(F)F [ANASIA-126-2] | – | – | – | – | 1720 | –
34 | CC(C)C[C@H](N)C(=O)N=[S@](N)(=O)c1nc(C(F)F)cs1 [ANASIA-127-1] | – | – | 6890 | – | – | –
35 | CC(C)C[C@H](N)C(=O)N=[S@@](N)(=O)c1nc(C(F)F)cs1 [ANASIA-127-2] | – | – | 192 | – | – | –
36 | Cc1nc([S@@](N)(=O)=NC(=O)[C@@H](N)CC(C)C)sc1C [ANASIA-128-1] | – | – | 2610 | – | – | –
37 | Cc1nc([S@](N)(=O)=NC(=O)[C@@H](N)CC(C)C)sc1C [ANASIA-128-2] | – | – | – | – | 3440 | –
38 | Cc1nc([S@@](N)(=O)=NC(=O)[C@@H](N)CC(C)C)cs1.Cl [ANASIA-129-1] | – | 64 | 319 | 128 | – | –
39 | CC(C)C[C@H](N)C(=O)N=[S@](N)(=O)c1cscc1-c1ccccc1 [ANASIA-130-1] | – | – | 324 | – | – | –
40 | CC(C)C[C@H](N)C(=O)N=[S@@](N)(=O)c1cscc1-c1ccccc1 [ANASIA-130-2] | – | – | – | – | 3700 | –
41 | CC(C)C[C@H](N)C(=O)N=[S@](N)(=O)c1csc2cccnc12.Cl [ANASIA-131-1] | 32 | > 64 | 530 | 256 | – | –
42 | CC(C)C[C@H](N)C(=O)N=[S@](N)(=O)c1nsc2ccccc12 [ANASIA-132-1] | – | – | 4140 | – | – | –
43 | CCc1csc([S@@](N)(=O)=NC(=O)[C@@H](N)CC(C)C)c1 [ANASIA-133-1, (S)-2-amino-N—((S)-amino(4-ethylthiophen-2-yl)(oxo)-λ6-sulfanylidene)-4-methylpentanamide] | – | 8 (≈ 26.4 µM) | 97.3 | 128 (≈ 422 µM) | – | –
44 | CCc1csc([S@](N)(=O)=NC(=O)[C@@H](N)CC(C)C)c1 [ANASIA-133-2, (S)-2-amino-N—((R)-amino(4-ethylthiophen-2-yl)(oxo)-λ6-sulfanylidene)-4-methylpentanamide] | – | – | 6370 | – | – | –
45 | CC(C)C[C@H](N)C(=O)N=[S@](N)(=O)c1cc(Cl)sc1Cl [ANASIA-134-1] | – | – | 5150 | – | – | –
46 | CC(C)C[C@H](N)C(=O)N=[S@](N)(=O)c1csc(C#N)c1 [ANASIA-135-1] | – | – | 5070 | – | – | –
47 | CC(C)C[C@H](N)C(=O)N=[S@@](N)(=O)c1cc(C#N)cs1 [ANASIA-136-2] | – | – | – | – | 1410 | –
48 | Cc1ncc([S@@](N)(=O)=NC(=O)[C@@H](N)CC(C)C)s1 [ANASIA-137-1] | – | – | 2670 | – | – | –
49 | Cc1ncc([S@](N)(=O)=NC(=O)[C@@H](N)CC(C)C)s1 [ANASIA-137-2] | – | – | – | – | 8890 | –
